Results on 20 compounds are retold here after paper PMC8344243, “Design, synthesis, docking, ADMET studies, and anticancer evaluation of new 3-methylquinoxaline derivatives as VEGFR-2 inhibitors and apoptosis inducers” (Journal of Enzyme Inhibition and Medicinal Chemistry, 2021).

In one data set the test system is MCF-7. The experiment in a line: MTT anti-proliferative assay, MCF-7. In kind it is cell-based. Particulars: for IC50: Homo sapiens, MCF7, MCF-7, MTT assay, read-out: Cytotoxicity on cancer cells IC50, MCF-7. The procedure: (§1) In vitro cytotoxic activities of the synthesised compounds were evaluated against two different cancer cell lines; breast cancer (MCF-7) and hepatocellular carcinoma (HepG2) using standard MTT colorimetric assay as described by Mosmann[78]^,[79]. […].
(§2) The in vitro antiproliferative activities were assessed using the MTT assay protocol[78]^,[79]^,[95]. As shown in Supplementary Data.

A further data set relates to HepG2. The experiment in a line: MTT anti-proliferative assay, HepG2. The class given is cell-based. As to conditions: Homo sapiens, read-out: Cytotoxicity on cancer cells IC50, HepG2. The procedure: as §1, §2
Background: Tetrazolium assays rely on reduction of a dye to a coloured formazan, in cell work by metabolically active cells.

A further data set has as its target T1, human VEGFR-2 (Homo sapiens, UniProt P35968).
T1 construct: endogenous in cells; host or cells: HepG2
The experiment in a line: In vitro VEGFR-2 enzyme inhibition assay (ELISA kit, HepG2 cell line). The class given is biochemical. As to conditions: human VEGFR-2 in HepG2 cell line. The text has this: The synthesised compounds were estimated for their in vitro inhibition on human VEGFR-2 in HepG2 cell line; using ELISA kit[96] as described in Supplementary Data.

A further data set relates to primary rat hepatocytes. The experiment in a line: Cytotoxicity against primary rat hepatocytes (normal hepatic cells). The class given is cell-based. As to conditions: HepG2 vs primary rat hepatocytes. The text has this: (§3) It is of high importance for anticancer agents to have minimum side effects on normal cells. […].
Test in data set [1]: as above
The class given is cell-based. As to conditions: rat, primary rat hepatocytes.
Text: as §3

Some results are limits rather than exact numbers.

T1 sequence (P35968 20-1356): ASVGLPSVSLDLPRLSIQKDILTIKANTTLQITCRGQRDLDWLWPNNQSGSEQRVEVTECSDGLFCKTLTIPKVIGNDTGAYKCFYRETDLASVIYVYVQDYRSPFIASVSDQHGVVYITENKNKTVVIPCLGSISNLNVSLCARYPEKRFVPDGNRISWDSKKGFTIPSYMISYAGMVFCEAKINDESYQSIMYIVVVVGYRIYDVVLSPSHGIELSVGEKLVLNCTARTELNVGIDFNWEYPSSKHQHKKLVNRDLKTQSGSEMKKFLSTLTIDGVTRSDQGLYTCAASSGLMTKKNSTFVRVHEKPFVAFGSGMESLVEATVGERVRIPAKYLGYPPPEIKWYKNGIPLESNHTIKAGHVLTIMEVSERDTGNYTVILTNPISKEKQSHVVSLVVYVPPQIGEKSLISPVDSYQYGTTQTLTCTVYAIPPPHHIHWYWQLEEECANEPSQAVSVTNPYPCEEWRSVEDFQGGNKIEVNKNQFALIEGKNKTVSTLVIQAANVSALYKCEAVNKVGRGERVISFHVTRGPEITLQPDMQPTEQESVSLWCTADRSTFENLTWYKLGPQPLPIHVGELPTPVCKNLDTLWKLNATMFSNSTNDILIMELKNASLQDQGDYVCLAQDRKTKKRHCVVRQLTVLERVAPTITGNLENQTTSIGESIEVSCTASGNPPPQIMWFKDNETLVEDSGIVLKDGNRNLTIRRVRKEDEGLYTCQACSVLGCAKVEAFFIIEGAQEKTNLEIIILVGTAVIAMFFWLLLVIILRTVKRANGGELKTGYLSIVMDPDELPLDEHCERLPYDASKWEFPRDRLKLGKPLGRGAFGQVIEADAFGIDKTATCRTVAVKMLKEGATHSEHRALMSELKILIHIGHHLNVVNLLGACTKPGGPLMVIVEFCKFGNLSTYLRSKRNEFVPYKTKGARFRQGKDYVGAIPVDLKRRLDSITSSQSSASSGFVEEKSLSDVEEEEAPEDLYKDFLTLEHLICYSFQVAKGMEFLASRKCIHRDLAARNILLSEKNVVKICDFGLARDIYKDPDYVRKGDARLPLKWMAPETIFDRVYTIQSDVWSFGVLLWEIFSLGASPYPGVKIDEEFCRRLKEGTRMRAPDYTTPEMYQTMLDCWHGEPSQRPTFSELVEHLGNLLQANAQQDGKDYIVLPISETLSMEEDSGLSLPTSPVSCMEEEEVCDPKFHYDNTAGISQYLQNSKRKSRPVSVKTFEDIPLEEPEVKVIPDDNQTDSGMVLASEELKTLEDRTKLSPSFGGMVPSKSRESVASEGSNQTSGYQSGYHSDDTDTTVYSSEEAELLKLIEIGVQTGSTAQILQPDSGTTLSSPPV

For orientation: IC50 means the concentration that inhibits the measured activity by half. In general, melting point refers to the temperature of the solid-liquid transition. The compound `Cc1nc2ccccc2n(CC(=O)Nc2ccc(C(=O)NCCc3ccccc3)cc2)c1=O` [Compound 27b, 4-(2-(3-Methyl-2-oxoquinoxalin-1(2H)-yl)acetamido)-N-phenethylbenzamide] returned a melting point of 283 to 285 °C. In the data set on MCF-7, the IC50 was found to be 62.3 µM and the “Activity against the MCF-7 cell line (in words)” value (from here on “Activity … (in words)”) was “inactive”. For the same compound, the IC50 with HepG2 worked out at 41.5 µM. Besides, the IC50 against human VEGFR-2 is 0.0225 µM.

In the case of `Cc1nc2ccccc2n(CC(=O)Nc2ccc(C(=O)NNc3ccccc3)cc2)c1=O` [Compound 29, 2-(3-Methyl-2-oxoquinoxalin-1(2H)-yl)-N-(4-(2-phenylhydrazine-1-carbonyl)phenyl) acetamide], the half-inhibitory concentration (IC50) in the data set on MCF-7 was 23.5 µM; in the data set with HepG2 it was 17.5 µM; at human VEGFR-2 it was 0.0098 µM.

Turning to `Cc1nc2ccccc2nc1SCC(=O)Nc1ccc(C(=O)NCCc2ccccc2)cc1` [Compound 30d, 4-(2-((3-Methylquinoxalin-2-yl)thio)acetamido)-N-phenethylbenzamide], the melting point fell in the range of 220 to 222 °C. Moreover, the IC50 in the data set on MCF-7 was 42.7 µM. The half-maximal inhibitory concentration (IC50) in the data set with HepG2 was 32.4 µM. Also, half-maximal inhibition against human VEGFR-2 (IC50) required 0.0157 µM.

Regarding `Cc1nc2ccccc2n(CC(=O)Nc2ccc(C(=O)Nc3ccc(Cl)cn3)cc2)c1=O` [Compound 27f, N-(5-Chloropyridin-2-yl)-4-(2-(3-methyl-2-oxoquinoxalin-1(2H)-yl)acetamido)-benzamide], the melting point was more than 300 °C. Further, the concentration for half-maximal inhibition (IC50) in the data set on MCF-7 turned out to be 22.7 µM. In addition, the 50% inhibitory concentration (IC50) with HepG2 turned out to be 19.7 µM. This compound gave an IC50 at human VEGFR-2 of 0.0107 µM.

For the compound `Cc1nc2ccccc2nc1SCC(=O)Nc1ccc(C(=O)NNC(=O)c2ccccc2)cc1` [Compound 31a, N-(4-(2-benzoylhydrazine-1-carbonyl)phenyl)-2-((3-methylquinoxalin-2-yl)thio) acetamide], the values for the half-maximal inhibitory concentration (IC50) in the data set on MCF-7, in the data set with HepG2 and against human VEGFR-2 were 23.1 µM, 18.7 µM and 0.0107 µM, respectively.

`COc1cccc(OC)c1NC(=O)c1ccc(NC(=O)Cn2c(=O)c(C)nc3ccccc32)cc1` [Compound 27c, N-(2,6-Dimethoxyphenyl)-4-(2-(3-methyl-2-oxoquinoxalin-1(2H)-yl)acetamido)-benzamide] yielded a melting point of more than 300 °C. In the data set with MCF-7, the IC50 was found to be 57.2 µM and the “Activity … (in words)” value is “inactive”. Besides, the IC50 in the data set on HepG2 worked out at 42.6 µM. Also, the IC50 on human VEGFR-2 was determined as 0.0116 µM.

Take `COc1cccc(OC)c1NC(=O)c1ccc(NC(=O)CSc2nc3ccccc3nc2C)cc1` [Compound 30g, N-(2,6-Dimethoxyphenyl)-4-(2-((3-methylquinoxalin-2-yl)thio)acetamido) benzamide]: the concentration for half-maximal inhibition (IC50) in the data set on MCF-7 turned out to be 61.7 µM; in the data set with HepG2, 40.8 µM; against human VEGFR-2, 0.0389 µM. Further, the “Activity … (in words)” value with MCF-7 is “inactive”.

In the case of `Cc1cccc(C)c1NC(=O)c1ccc(NC(=O)Cn2c(=O)c(C)nc3ccccc32)cc1` [Compound 27d, N-(2,6-Dimethylphenyl)-4-(2-(3-methyl-2-oxoquinoxalin-1(2H)-yl)acetamido)-benzamide], the melting point was in the range of 240 to 242 °C. Further, the half-maximal inhibitory concentration (IC50) in the data set on MCF-7 came out at 30.7 µM. Also, the IC50 in the data set with HepG2 is 24.1 µM. Moreover, the IC50 on human VEGFR-2 is 0.0218 µM.

In turn, `Cc1nc2ccccc2nc1SCC(=O)Nc1ccc(C(=O)NC(C)(C)C)cc1` [Compound 30a, N-(tert-Butyl)-4-(2-((3-methylquinoxalin-2-yl)thio)acetamido)benzamide] had a melting point of 231 to 233 °C. Further, in the data set with MCF-7, the concentration for half-maximal inhibition (IC50) came to 61.9 µM and the “Activity … (in words)” value was “inactive”. Also, the IC50 in the data set with HepG2 is 43.7 µM. The compound also returned a 50% inhibitory concentration (IC50) at human VEGFR-2 of 0.0298 µM.

In the case of `Cc1ccccc1NC(=O)c1ccc(NC(=O)CSc2nc3ccccc3nc2C)cc1` [Compound 30f, 4-(2-((3-Methylquinoxalin-2-yl)thio)acetamido)-N-(o-tolyl)benzamide], the half-inhibitory concentration (IC50) is 18.1 µM in the data set on MCF-7, 10.7 µM with HepG2, 0.0049 µM against human VEGFR-2 and 15.7 µM in data set [1]. Moreover, the “Cytotoxic activity against cancer HepG2 cell line more than against normal hepatic cells” value with primary rat hepatocytes worked out at 1.5 fold.

Take `Cc1nc2ccccc2nc1SCC(=O)Nc1ccc(C(=O)Nc2ccc(Cl)cn2)cc1` [Compound 30i, N-(5-Chloropyridin-2-yl)-4-(2-((3-methylquinoxalin-2-yl)thio)acetamido)benzamide]: the IC50 is 17.2 µM in the data set with MCF-7, 12.7 µM with HepG2 and 0.0061 µM against human VEGFR-2.

`Cc1nc2ccccc2nc1SCC(=O)Nc1ccc(C(=O)Nc2ccc([N+](=O)[O-])cc2)cc1` [Compound 30h, 4-(2-((3-Methylquinoxalin-2-yl)thio)acetamido)-N-(4-nitrophenyl)benzamide] came in with a melting point of 200 to 202 °C. The half-maximal inhibitory concentration (IC50) with MCF-7 amounted to 21.3 µM. The half-inhibitory concentration (IC50) in the data set with HepG2 came out at 17.7 µM. This compound registered a 50% inhibitory concentration (IC50) against human VEGFR-2 of 0.0118 µM.

Regarding `Cc1nc2ccccc2nc1SCC(=O)Nc1ccc(C(=O)Nc2ccccc2)cc1` [Compound 30e, 4-(2-((3-Methylquinoxalin-2-yl)thio)acetamido)-N-phenylbenzamide], the half-maximal inhibitory concentration (IC50) in the data set with MCF-7 came out at 31.3 µM; in the data set with HepG2 it was 24.3 µM; against human VEGFR-2 it was 0.0274 µM.

Regarding `Cc1nc2ccccc2n(CC(=O)Nc2ccc(C(=O)Nc3ccc([N+](=O)[O-])cc3)cc2)c1=O` [Compound 27e, 4-(2-(3-Methyl-2-oxoquinoxalin-1(2H)-yl)acetamido)-N-(4-nitrophenyl)benzamide], the melting point was more than 300 °C. In addition, the IC50 in the data set with MCF-7 was 42.3 µM. The IC50 in the data set with HepG2 stood at 27.5 µM. Moreover, the concentration for half-maximal inhibition (IC50) at human VEGFR-2 amounted to 0.0217 µM.

As for `Cc1nc2ccccc2nc1SCC(=O)Nc1ccc(C(=O)NCc2ccccc2)cc1` [Compound 30c, N-benzyl-4-(2-((3-methylquinoxalin-2-yl)thio)acetamido)benzamide], the melting point is 235 to 237 °C. Also, the IC50 in the data set with MCF-7 stood at 41.9 µM. Moreover, the 50% inhibitory concentration (IC50) in the data set with HepG2 was 34.1 µM. At human VEGFR-2, the IC50 stood at 0.0138 µM.

On to `CNC(=O)c1cc(Oc2ccc(NC(=O)Nc3ccc(Cl)c(C(F)(F)F)c3)cc2)ccn1` [Sorafenib, reference compound], for which the IC50 was found to be 2.17 µM in the data set on HepG2 and 17.3 µM in data set [1]. Further, the “Cytotoxic activity against cancer HepG2 cell line more than against normal hepatic cells” value in the data set on primary rat hepatocytes was 8 fold.

For the compound `Cc1nc2ccccc2nc1SCC(=O)Nc1ccc(C(=O)NNc2ccccc2)cc1` [Compound 32, 2-((3-Methylquinoxalin-2-yl)thio)-N-(4-(2-phenylhydrazine-1-carbonyl)phenyl) acetamide], the concentration for half-maximal inhibition (IC50) with MCF-7 was found to be 59.5 µM; in the data set on HepG2 it was 41.3 µM; at human VEGFR-2, 0.0238 µM. Further, in the data set with MCF-7, the “Activity … (in words)” value was “inactive”.

As for `Cc1nc2ccccc2nc1SCC(=O)Nc1ccc(C(=O)NC2CCCCC2)cc1` [Compound 30b, N-Cyclohexyl-4-(2-((3-methylquinoxalin-2-yl)thio)acetamido)benzamide], the values for the IC50 in the data set on MCF-7, in the data set with HepG2 and at human VEGFR-2 were 43.8 µM, 34.2 µM and 0.0087 µM, respectively.

Compound `Cc1nc2ccccc2nc1SCC(=O)Nc1ccc(C(=O)NNC(=O)c2ccc([N+](=O)[O-])cc2)cc1` [Compound 31b, 2-((3-Methylquinoxalin-2-yl)thio)-N-(4-(2-(4-nitrobenzoyl)hydrazine-1-carbonyl)phenyl) acetamide] had a melting point of 196 to 198 °C. The IC50 in the data set with MCF-7 was 19.2 µM. Moreover, the IC50 in the data set with HepG2 was determined as 13.7 µM. Moreover, at human VEGFR-2, the IC50 worked out at 0.0051 µM.

Consider `Cc1nc2ccccc2n(CC(=O)Nc2ccc(C(=O)NNC(=O)c3ccc([N+](=O)[O-])cc3)cc2)c1=O` [Compound 28, 2-(3-Methyl-2-oxoquinoxalin-1(2H)-yl)-N-(4-(2-(4-nitrobenzoyl)hydrazine-1-carbonyl)phenyl)acetamide], for which the IC50 is 17.2 µM in the data set on MCF-7, 11.7 µM in the data set on HepG2 and 0.0042 µM at human VEGFR-2.
